Measurements as given in paper PMC8453745, “Human Mass Balance and Metabolite Profiling of [^14C]‐Pamiparib, a Poly (ADP‐Ribose) Polymerase Inhibitor, in Patients With Advanced Cancer” (Clinical Pharmacology in Drug Development, 2021).
“Also recorded” adds a separate entry of the source.

Tests used:
[1] = total radioactivity in plasma of patients (LSC); assay type: in vivo, human
Excerpt: (§1) Part 1 of the study included a screening phase of up to 28 days prior to drug administration to assess eligibility. Patients were admitted to the clinical research unit (CRU) at Royal Liverpool University Hospital (Liverpool, UK)/Clatterbridge Cancer Centre NHS Foundation Trust (Bebington, Wirral, UK) on day −1 and received a single dose of 60‐mg/100 μCi [^14C]‐pamiparib orally the morning of day 1. Patients remained in the CRU until completion of assessments on day 7, when discharge criteria of ≈90% of the radioactive dose being recovered or <1% of the radioactive dose being recovered in urine and feces for 2 consecutive 24‐hour collection intervals were met. If discharge criteria were not met by day 7, patients collected 24‐hour excreta samples up to day 14 on an outpatient basis. Part 2 of the study, evaluating the safety/tolerability and antitumor activity of 60 mg twice‐daily pamiparib in patients with advanced and/or metastatic solid tumors, is ongoing and is not included in this report.
(§2) Patients fasted overnight and 2 hours after oral administration of a single 60‐mg dose containing ≈100 μCi (3.7‐3.9 MBq) of [^14C]‐pamiparib with ≈240 mL of room‐temperature water or juice (orange or grape). The residual radioactivity present in each vial postdose was corrected from the dose. The radioactive dose of 100 μCi of [^14C]‐pamiparib provided minimum risk to patients according to the dosimetry calculation from a quantitative whole‐body autoradiography study in male and female Long Evans rats; the dose also provided sufficient signal for total radioactivity counting and quantitative radioprofiling in blood, plasma, and excreta (data on file). […]
(§3) Total radioactivity was analyzed at Covance Laboratories (Harrogate, North Yorkshire, UK), and metabolite profiling was conducted at Covance Laboratories (Madison, Wisconsin). Determination of pamiparib concentrations in plasma and total radioactivity in plasma and whole blood was performed predose and 0.25, 0.5, 1, 1.5, 2, 2.5, 3, 6, 12, 24, 48, 72, 96, 120, and 144 hours postdose. Pamiparib concentrations in plasma and urine were determined at Covance Laboratories (Salt Lake City, Utah) with validated liquid chromatography‐tandem mass spectrometry (LC‐MS/MS) methods.
Total radioactivity concentrations of [^14C]‐pamiparib in whole blood, plasma, urine, and feces were determined by liquid scintillation counting (LSC). Radioactivity in each sample was measured for 5 minutes using a Packard Tri‐Carb liquid scintillation counter model 2100TR, 2900TR, or 3100TR (Canberra Packard, Pangbourne, Berks, Australia) with the facilities for computing quench‐corrected disintegrations per minute. […] Quantitation of the metabolites present in plasma, urine, and feces was based on the profiles of radioactivity. […]

[2] = total radioactivity in whole blood of patients (LSC); assay type: in vivo, human; conditions: n = 4
Excerpt: as §1, with “If discharge criteria were not met by day 7, patients collected 24‐hour excreta samples up to day 14 on an outpatient basis. Part 2 of the study, evaluating the safety/tolerability and antitumor activity of 60 mg twice‐daily pamiparib in patients with advanced and/or metastatic solid tumors, is ongoing and is not included in this report.” left out
as §2

[3] = unchanged pamiparib in urine and renal clearance (LC‐MS/MS); assay type: in vivo, human
Procedure: as §3
An aliquot of human plasma (25 μL) containing dipotassium ethylenediaminetetraacetic acid as anticoagulant or urine (25 μL) was added with the internal standard (20.0 μL of 400 ng/mL BGB‐326) in water:ACN (50:50 v/v) followed by the addition of water:ACN (50:50 v/v, 20.0 μL). […]
Standard PK parameters of pamiparib in plasma as well as total radioactivity in blood and plasma were calculated with noncompartmental methods with Phoenix WinNonlin (version 8.1). Area under the concentration‐time curve (AUC) from time 0 to infinity (AUC0‐∞), AUC from time 0 to last quantifiable concentration (AUC0‐t), Cmax, time postdose at Cmax (tmax), t1/2, and apparent total clearance (CL/F) were calculated. Renal clearance (CLR) was calculated as Ae/AUC, where Ae was the amount of drug excreted in urine.

PARP activity = test system: PARP activity; set-up: method as in PMID 33264017; conditions: read-out: inhibition of PARP activity in cellular PARylation assay, IC50; cited from earlier work
[4] = cited from earlier work
[5] = 60‐mg single dose, n = 11, ref BGB‐290‐AU‐002, NCT02361723

## C[C@]12CCCN1CC1=NNC(=O)c3cc(F)cc4[nH]c2c1c34 [Pamiparib]
[1]
  geometric mean AUC0‐t of pamiparib (LC‐MS/MS) as percent of total radioactivity in plasma: ~69.9%
  geometric mean AUC0‐∞ of pamiparib (LC‐MS/MS) as percent of total radioactivity in plasma: ~69.4%
  geometric mean Cmax of pamiparib (LC‐MS/MS) as percent of total radioactivity in plasma: ≈ 91.6%
[1]; n = 4
  AUC0‐∞ ratio plasma pamiparib/total radioactivity, geometric mean (CV%): 0.694 (2.7)
[2]
  AUC0‐∞ ratio blood/plasma, geometric mean (CV%): ≈ 0.764; also recorded: ≈ 0.76
[3]; LC‐MS/MS, over the 192‐hour study
  cumulative percent of pamiparib excreted unchanged in urine, geometric mean: ≈ 1.7 % of the administered dose
[3]; human, urine and plasma, oral, 60 mg, calculated as Ae/AUC, read-out: renal clearance, geometric mean (converted)
  CL renal: 0.623 mL/min
PARP activity
  IC50: 0.2 nM
[4]; [5]
  AUC0‐inf, geometric mean: 32 005 ng·h/mL
  Cmax, geometric mean: 1881 ng/mL
[4]; tested dose range 2.5‐120 mg
  pharmacokinetic profile (dose linearity): linear
[4]; up to 60 mg, patients
  tolerability: generally well tolerated
